These are literature values, as cited in patent publication US20110105624A1, “ENDIPALENE FORMULATIONS IN THE TREATMENT OF PSORIASIS” (priority 2008, published 2011).

The subject of this series is volunteers with psoriasis.

Take `COc1c(OC)c(OC(C)=O)c2cc(Cl)ccc2c1OC(C)=O` [Lonapalene, 6-chloro-2,3-dimethoxynaphtalendiacetate]: the “clinical improvement in lesions” value (2% ointment, topical, compared with vehicle-treated sites) was “statistically significant clinical improvement”. Moreover, the “side effects related to topical application” value (topical application) is “serious side effects”.
